Assay results published in patent publication US9597312B2, “Treatment of cognitive disorders associated with abnormal dendritic spines using PKC activators” (Cognitive Research Enterprises, Inc., priority 2010, dated 2017).

What was measured:
PKC [1] = conditions: cited from earlier work
[2] = system: ischemia-induced deficits; conditions: postischemic/hypoxic treatment; cited from earlier work
FMR1 mice = experiment: Spatial water maze in Fragile X (FMR1) mice; format: in vivo; conditions: 20 μg/m^2 tail i.v., 2 doses/week for 13 weeks, vs FMR1 with vehicle p<0.001
From the text: Two types of mice (male, The Jackson Laboratories, ME, USA; 9-10 per group) were used in the study: FVB.129P2-Fmrl^tmlCgr/J (FMR1) and FVB.129P2-Pde6b^+ Tyr^c-ch/AntJ (as the control groups).
(§1) Non-treated groups received the same volume of vehicle at the same frequency of administration as the treated groups.
The first training of spatial water maze task began on the 10th day after the last dose. Mice were trained for 8 days (2 trials/day) to find a hidden platform, centered in one of the quadrants and submerged about 2 cm below the water surface. At the start of all trials, mice were placed individually in the water facing the maze wall, using different starting positions each trial, and allowed to swim until they found the platform, where they remained for 20 s, before being returned to their home cages. […] The swim path was recorded with a video-tracking system, which computed latency to the platform, swim distance, and percentage of time spent in the quadrants. After the training trials, a probe trial (a quadrant test or retention trial) was performed with the platform removed to assess memory retention for its location by the distance the mouse moved in the quadrants. The video-tracking system tracked the animal's movements in each quadrant during a period of one minute. […]

synaptophysin = experiment: Synaptophysin immunohistochemistry in hippocampus of aged rats; format: in vivo
Protocol: Under anesthesia (choral hydrate; Sigma-Aldrich; 400 mg/kg body weight, i.p.), rats were perfused through the heart with PBS by gravity to wash out the blood and then lightly fixed with 150 ml of 4% paraformaldehyde in PBS at room temperature, instead of a cold fixative, because hypothermia can reduce the number of dendritic spines. Brains were removed and postfixed for 10 min. Thereafter, hippocampi were isolated from the right brain hemispheres, and dorsal hippocampi were sectioned with a vibratome at 400 μm for DiI staining and immunohistochemistry.
Hippocampal slices at 400 μm thickness were further immersed in the fixative (4% paraformaldehyde in PBS) for 30 min at room temperature and then sectioned at 35 μm thickness by using a vibratome. Sections were then processed for immunohistochemistry as described in Hongpaisan et al., J Neurosci., 2004, 24:10878-10887. […]
All data were quantified by using the ImageJ program. The appearance of spinophilin and synaptophysin profiles in a 63-μm×63-μm image taken from the superficial part of the stratum radiatum were analyzed with the photographic negative after background subtraction. The total number of spinophilin and synaptophysin granules were then counted by using ImageJ. […] HuC/D immunostaining was quantified by measuring fluorescence intensity in the proximal dendrite portion of each individual CA1 pyramidal neuron. […]

hippocampal CA1 neurons = experiment: DiI staining and confocal microscopy of dendritic spines of hippocampal CA1 neurons in Fragile X mice; format: in vivo; conditions: Fragile X transgenic mice
Protocol: as §1
The tips of glass electrodes, prepared as used for electrophysiology, were immersed in 5% (wt/vol) 1, 1′-dioctadecyl-3,3,3′,3′-tetramathyl-indocarbocyanineperchlorate (DiI, Molecular Probes/Invitrogen) in dichloromethane (Sigma-Aldrich) and air-dried at room temperature for 30 min. The tips of DiI-coated electrodes were inserted, broken, and left in the strata oriens of the CA1 area of hippocampal sections at […] thickness. After maintenance in PBS at 4° C. overnight to allow DiI to diffuse in the plasma membrane of the CA1 neurons, hippocampal sections were then resectioned to 35 μm thickness and mounted on glass slides, using PBS as the mounting medium. Dendritic spines stained with DiI in the strata radiatum were collected using a Zeiss Axiovert 200M microscope equipped with 510 confocal scanning system at 568 nm/>510 nm (excitation/emission). A stack of confocal images (taken every 0.4 μm) was collected to obtain all dendritic spines of an individual dendritic shaft. During analysis, a stack of images was retrieved with the ImageJ program (National Institutes of Health). Individual spines identified on one image were also verified on adjacent stacked images to approximate the three-dimensional structure of this spine. Those spines, which had head diameters more than three times larger than the diameter of their necks (FIGS. 1 d and e), were identified as mushroom spines. Approximately four to six stacked image sets were obtained from each animal. All image sets were pooled and coded; therefore, images were identified with unknown animal number and unknown treatment (double-blind protocol).
(§2) The mice were then sacrificed and hippocampal sections were removed and treated as described in Example 2.

Aβ(1-42) = conditions: transgenic mice with human AD genes; cited from earlier work
[3] = system: mushroom-shaped dendritic spines; conditions: rats; cited from earlier work
hippocampal CA1 area = experiment: Immunohistochemistry of synaptic markers (GAP-43, neurogranin, synaptophysin) in hippocampal CA1 area of Fragile X mice; format: in vivo
Protocol: as §1
Hippocampal slices at 400 μm thickness were further immersed in the fixative (4% paraformaldehyde in PBS) for 30 min at room temperature and then sectioned at 35 μm thickness by using a vibratome. Sections were then processed for immunohistochemistry as described in Hongpaisan et al., J Neurosci., 2004, 24:10878-10887. Tissue sections were incubated free-floating with primary antibodies against spinophilin (polyclonal IgG; 1:100; Upstate/Millipore), synaptophysin (monoclonal IgG; 1:2,000; Chemicon/Millipore), and/or HuC/D (monoclonal IgG; 1:100; Molecular Probes) at room temperature overnight. For a polyclonal antibody, tissue sections were incubated with Alexa Fluor 568 goat anti-rabbit IgG (1:200; Molecular Probes) for 3 h at room temperature. For monoclonal antibodies, sections were treated with a biotinylated secondary antibody (1:20; Vector Laboratories) for 3 h at room temperature and then with streptavidin conjugated with Alexa Fluor 488 (1:100; Molecular Probes) for 3 h at room temperature. Sections were mounted with […] mounting medium with DAPI to counterstain nuclei (Vector Laboratories) and imaged with the confocal microscope (512 pixels×512 pixels).
All data were quantified by using the ImageJ program. The appearance of spinophilin and synaptophysin profiles in a 63-μm×63-μm image taken from the superficial part of the stratum radiatum were analyzed with the photographic negative after background subtraction. The total number of spinophilin and synaptophysin granules were then counted by using ImageJ. Synaptophysin intensity was defined in the whole area of a 63-μm×63-μm image. HuC/D immunostaining was quantified by measuring fluorescence intensity in the proximal dendrite portion of each individual CA1 pyramidal neuron. The naive control data were set at 100%, and all other experiment data were defined as the percentage of their control.
as §2

PKCε = target: T1, PKCε (Homo sapiens, UniProt Q02156); conditions: cited from earlier work
T1 sequence (Q02156 1-737): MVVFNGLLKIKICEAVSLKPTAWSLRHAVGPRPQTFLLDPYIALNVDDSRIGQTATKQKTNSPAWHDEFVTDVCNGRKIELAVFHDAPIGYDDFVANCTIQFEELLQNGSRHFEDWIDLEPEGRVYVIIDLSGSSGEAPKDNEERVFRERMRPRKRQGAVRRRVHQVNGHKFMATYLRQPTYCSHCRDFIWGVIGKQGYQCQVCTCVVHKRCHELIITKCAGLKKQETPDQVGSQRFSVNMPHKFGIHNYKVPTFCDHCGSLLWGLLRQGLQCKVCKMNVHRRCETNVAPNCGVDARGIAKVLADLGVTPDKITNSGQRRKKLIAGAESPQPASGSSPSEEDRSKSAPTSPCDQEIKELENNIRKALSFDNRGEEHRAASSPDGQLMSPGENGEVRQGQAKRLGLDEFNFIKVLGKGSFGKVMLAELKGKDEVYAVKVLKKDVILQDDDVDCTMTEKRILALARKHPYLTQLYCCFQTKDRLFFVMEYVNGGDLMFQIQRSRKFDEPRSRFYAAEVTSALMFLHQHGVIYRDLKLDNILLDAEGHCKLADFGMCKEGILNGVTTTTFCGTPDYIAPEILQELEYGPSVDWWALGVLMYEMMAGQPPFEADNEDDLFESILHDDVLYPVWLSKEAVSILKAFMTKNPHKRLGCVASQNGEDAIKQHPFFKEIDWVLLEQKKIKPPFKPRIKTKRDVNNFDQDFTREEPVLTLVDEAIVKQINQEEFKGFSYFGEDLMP

[4] = system: cyclin dependent kinase 2 (Cdk2); conditions: at 5 ng/ml; cited from earlier work
[5] = system: murine leukemias and solid tumors; conditions: cited from earlier work
PKC [6] = conditions: K562 cells; cited from earlier work
[7] = system: squamous cell carcinoma and melanoma; conditions: used topically; cited from earlier work
NCI 60 cell line screen = conditions: cited from earlier work
protein kinase C = conditions: specifically the (−)-enantiomer; read-out: EC50 (potency); cited from earlier work

For `CCCCCCCC(=O)O[C@H]1/C(=C/C(=O)OC)C[C@H]2C[C@H](CO)OC(=O)C[C@H](O)C[C@@H]3CCC[C@H](C[C@@H]4CCO[C@H](/C=C/C(C)(C)[C@]1(O)O2)O4)O3` [Analog 1], the “affinity for PKC (in words)” value (PKC [1]) is listed as “high affinity for PKC”.

In the case of `CCC/C=C/C=C/C(=O)O[C@H]1/C(=C/C(=O)OC)C[C@H]2C[C@H]([C@@H](C)O)OC(=O)C[C@H](O)C[C@@H]3C[C@H](OC(C)=O)C(C)(C)[C@](O)(C[C@@H]4C/C(=C/C(=O)OC)C[C@H](/C=C/C(C)(C)[C@]1(O)O2)O4)O3` [Bryostatin 1, bryostatin-1], the “ischemia-induced deficits in synaptogenesis, neurotrophic activity, and spatial learning and memory” value [2] is listed as “effectively rescued”, the “learning performance in water maze (FIG. 1)” value (FMR1 mice) is listed as “significantly improved the learning performance” and the “presence of synaptophysin (FIG. 3)” value (synaptophysin) is listed as “increased”. The “filopodia number per 100 μm of dendritic shaft (FIG. 6)” value (hippocampal CA1 neurons) was “improved the transformation of filopodia to dendritic spines”, the “mushroom-shaped and total dendritic spines per 100 μm of dendritic shaft (FIG. 5)” value (hippocampal CA1 neurons) was “prevented the loss” and the “number and density of dendritic mushroom spines (FIG. 4)” value (hippocampal CA1 neurons) was “restored the number and density of dendritic mushroom spines to wild-type levels”. The “Aβ(1-42) levels in the brains” value (Aβ(1-42)) was “reduce”, the “number of mushroom-shaped dendritic spines” value [3] was “memory-specific increase” and the “postsynaptic membrane density, neurogranin; number of synapses (FIG. 8)” value (hippocampal CA1 area; Fragile X transgenic mice) was “can be restored”. For the same compound, the “presynaptic membrane density, GAP-43 (FIG. 7)” value (hippocampal CA1 area; Fragile X transgenic mice) was “restored presynaptic membrane density in Fragile X transgenic mice to wild type levels”, the “presynaptic vesicle concentration, synaptophysin fluorescence intensity (FIG. 9)” value (hippocampal CA1 area; Fragile X transgenic mice) was “significantly restored, and even enhanced” and the “number of presynaptic axonal boutons, synaptophysin grains (FIG. 9)” value (hippocampal CA1 area; across experimental conditions) was “No difference”.

For `CCCCCC1CC1CC1CC1CCCCCCCC(=O)O` (centres unmarked) [DCP-LA, 2-[(2-pentylcyclopropyl)methyl]cyclopropaneoctanoic acid], the “concentration of maximal effect on PKCε activation” value (PKCε) is given as 100 nM.

For `C=C(C)[C@]12C[C@@H](COC(=O)c3ccccc3)[C@@]34OC5(O[C@@H]1[C@@H]3C1O[C@]1(CO)[C@@H](O)[C@@]1(O)[C@H]4[C@@H](C(C)CCCCCC[C@@H]5O)C(C)[C@@H]1OC(=O)c1ccccc1)O2` (some centres unmarked) [Gnidimacrin], the “inhibition of Cdk2” value [4] is listed as 100%, the “concentrations of potent antitumor activity” value [5] is listed as 0.1 to 1 nM and the “concentration at which it acts as a PKC activator” value (PKC [6]) is listed as roughly 3 nM.

For `C/C=C(/C)C(=O)O[C@H]1C(C)=C[C@]23C(=O)[C@@H](C=C(CO)[C@@H](O)[C@]12O)[C@H]1[C@@H](C[C@H]3C)C1(C)C` [Ingenol-3-angelate], the antitumor activity [7] is given as “possesses antitumor activity”.

For `CC1=CC[C@H](C)C(C)(C)[C@@H]1/C=C/C(C)=C/CC[C@@]1(CO)[C@H](CCCO)/C(=C(/C)C=O)CC[C@]1(C)O` [Iripallidal], the “GI50 (concentration required to inhibit growth by 50%)” value (NCI 60 cell line screen) is listed as “micromolar to nanomolar range”.

In the case of `CCCCCCCCc1ccc2c3c(c[nH]c13)C[C@@H](CO)NC(=O)[C@H](C(C)C)N2C` [octylindolactam V, Octylindolactam V], the EC50 (protein kinase C) is given as 29 nM.
